# Experimental data published in patent publication US9040459B2, “Herbicidal compositions comprising aminopyralid and propanil” (Dow AgroSciences, LLC., priority 2012, dated 2015).
# Columns and labels:
# Assay in all cases: Postemergence herbicidal activity under field conditions, visual weed control
# Assay type in all cases: in vivo
# Details in all cases: post-emergence field trial
# [1] = test system: Portulaca oleracea L. (common purslane, POROL)
# Protocol: (§1) These trials were conducted under field conditions in Espinal, Colombia. Trial sites were located in commercially grown fields of common rice (Oryza sativa). The rice crop was grown using normal cultural practices for fertilization, seeding, and maintenance to ensure good growth of the crop and the weeds. The trials were conducted using normal research methodology. Trial plots were 2 meters (m) wide by 5 m long. All treatments were applied using a randomized complete block trial design with 4 replications per treatment. The trial sites had naturally occurring populations of weeds. The weed spectrum included, but was not limited to, Cyperus iria L. (rice flatsedge, CYPIR), Digitaria horizontalis (Jamaican crabgrass, DIGHO), Eleusine indica L. Gaertn. (goosegrass, ELEIN), Portulaca oleracea L. (common purslane, POROL) and Phyllanthus niruri L. (gripeweed, PYLNI). The plots were treated with a postemergence foliar application 15 to 20 days after emergence of the rice.
# (§2) Treatments consisted of tank mixes of aminopyralid triisopropanolammonium salt (MILESTONE 240SL) and a commercially available formulation of propanil herbicide (STAM 480EC). The application volume was 200 liters per hectare (L/ha) of water. All applications were made using precision gas hand sprayers with a 3 m boom using flat fan 8002 nozzles to broadcast the treatments over the top of the rice and weeds.
# (§3) The treated plots and control plots were rated blind at various intervals after application. Ratings were based on Percent (%) Visual weed control, where 0 corresponds to no injury and 100 corresponds to complete kill.
# (§4) Colby's equation was used to determine the herbicidal effects expected from the mixtures (Colby, S. R. Calculation of the synergistic and antagonistic response of herbicide combinations. Weeds 1967 15, 20-22).
# (§5) The following equation was used to calculate the expected activity of mixtures containing two active ingredients, A and B: Expected=A+B−(A×B/100)
# (§6) A=observed efficacy of active ingredient A at the same concentration as used in the mixture;
# (§7) B=observed efficacy of active ingredient B at the same concentration as used in the mixture.
# [2] = test system: Eleusine indica L. Gaertn. (goosegrass, ELEIN)
# Protocol: as §1, §2, §3, §4, §5, §6, §7
# [3] = test system: Phyllanthus niruri L. (gripeweed, PYLNI)
# Protocol: as §1, §2, §3, §4, §5, §6, §7
# [4] = test system: Cyperus iria L. (rice flatsedge, CYPIR)
# Protocol: as §1, §2, §3, §4, §5, §6, §7
# [5] = test system: Digitaria horizontalis (Jamaican crabgrass, DIGHO)
# Protocol: as §1, §2, §3, §4, §5, §6, §7
smiles,measurement,setting,value
"Nc1cc(Cl)nc(C(=O)O)c1Cl [Aminopyralid, 4-amino-3,6-dichloro-2-pyridinecarboxylic acid]",Visual Weed Control (%) POROL 8 DAA Obs,[1]; aminopyralid 4 g ae/ha alone,36%
same,Visual Weed Control (%) POROL 8 DAA Obs,[1]; aminopyralid 8 g ae/ha alone,68%
same,Visual Weed Control (%) POROL 8 DAA Obs,[1]; aminopyralid 16 g ae/ha alone,93%
same,Visual Weed Control (%) ELEIN 8 DAA Obs,[2]; aminopyralid 4 g ae/ha alone,0%
same,Visual Weed Control (%) ELEIN 8 DAA Obs,[2]; aminopyralid 8 g ae/ha alone,0%
same,Visual Weed Control (%) ELEIN 8 DAA Obs,[2]; aminopyralid 16 g ae/ha alone,0%
same,Visual Weed Control (%) PYLNI 8 DAA Obs,[3]; aminopyralid 4 g ae/ha alone,0%
same,Visual Weed Control (%) PYLNI 8 DAA Obs,[3]; aminopyralid 8 g ae/ha alone,3%
same,Visual Weed Control (%) PYLNI 8 DAA Obs,[3]; aminopyralid 16 g ae/ha alone,3%
same,Visual Weed Control (%) CYPIR 15 DAA Obs,[4]; aminopyralid 4 g ae/ha alone,4.5%
same,Visual Weed Control (%) CYPIR 32 DAA Obs,[4]; aminopyralid 4 g ae/ha alone,0%
same,Visual Weed Control (%) CYPIR 32 DAA Obs,[4]; aminopyralid 8 g ae/ha alone,10%
same,Visual Weed Control (%) CYPIR 15 DAA Obs,[4]; aminopyralid 16 g ae/ha alone,15%
same,Visual Weed Control (%) CYPIR 32 DAA Obs,[4]; aminopyralid 16 g ae/ha alone,10%
same,Visual Weed Control (%) DIGHO 8 DAA Obs,[5]; aminopyralid 8 g ae/ha alone,0%
same,Visual Weed Control (%) DIGHO 8 DAA Obs,[5]; aminopyralid 16 g ae/ha alone,0%
"CCC(=O)Nc1ccc(Cl)c(Cl)c1 [Propanil, N-(3,4-dichloro-phenyl)propanamide]",Visual Weed Control (%) POROL 8 DAA Obs,[1]; propanil 480 g ai/ha alone,49%
same,Visual Weed Control (%) ELEIN 8 DAA Obs,[2]; propanil 480 g ai/ha alone,48%
same,Visual Weed Control (%) PYLNI 8 DAA Obs,[3]; propanil 480 g ai/ha alone,45%
same,Visual Weed Control (%) CYPIR 15 DAA Obs,[4]; propanil 480 g ai/ha alone,35%
same,Visual Weed Control (%) CYPIR 32 DAA Obs,[4]; propanil 480 g ai/ha alone,20%
same,Visual Weed Control (%) CYPIR 32 DAA Obs,[4]; propanil 960 g ai/ha alone,58%
same,Visual Weed Control (%) DIGHO 8 DAA Obs,[5]; propanil 480 g ai/ha alone,51%
